Reference: article PMC7031696 (Cell chemical biology, 2019)
Read-outs that look alike come from different tables or passages of the source.

Experiments:
[1] = tested on: asynchronous 3D7-A10 parasite cultures; assay: Standard 72-h exposure asexual blood stage susceptibility assay (IC50^72h); type: cell-based, Plasmodium falciparum; details: Plasmodium falciparum, 3D7, 72 h, read-out: Overall (72hr assay) Mean IC50 (IC50^72h)
[2] = tested on: Plasmodium falciparum 3D7-A10 parasites; assay: Stage specificity assay (8-h exposure of synchronized stages, IC50^8h); type: cell-based; details: for IC50: Plasmodium falciparum
[3] = tested on: 3D7-MR4 trophozoite parasite-infected RBCs; assay: Metabolomic profiling (hydrophilic metabolite changes, UHPLC-MS); type: cell-based, Plasmodium falciparum
[4] = tested on: 3D7-MR4 trophozoite parasite-infected RBCs; details: 10 × IC50^72h; ref Allman et al., 2016; cited from earlier work

IC50 [1]: 103 nM
Ratio lowest IC50 8hr/IC50 72hr ([2]; 3D7-A10): 3.7
SMILES: CCN(CC)CCn1c(=N)n(CC(O)c2ccc(Cl)c(Cl)c2)c2ccccc21.Cl (stereo not shown) [MMV000248]
IC50 ([2]; 3D7, read-out: Early trophozoites Mean IC50 (IC50^8h), 8-h exposure 16–24 hr, 3D7-A10, survival at 60 h): 411 nM
IC50 ([2]; 3D7, read-out: Late rings Mean IC50 (IC50^8h), 8-h exposure 8–16 hr, 3D7-A10, survival at 60 h): 6740 nM
IC50 ([2]; 3D7, read-out: Late trophozoites Mean IC50 (IC50^8h), 8-h exposure 24–32 hr, 3D7-A10, survival at 60 h): 376 nM
IC50 ([2]; 3D7, read-out: Schizonts Mean IC50 (IC50^8h), 8-h exposure 32–40 hr, 3D7-A10, survival at 60 h): 754 nM
Stage of peak activity (Figure 6) ([2]; period when the parasite was most susceptible (lowest IC50^8h)): trophozoites
Peak Activity (Table S1) ([2]; stage(s) with the lowest IC50^8h): Trophs
Log2(fold changes) 3-phosphoglycerate ([3]; metabolite 3-phosphoglycerate, log2 fold change): 0.5325
Log2(fold changes) 4-Pyridoxic acid ([3]; metabolite 4-Pyridoxic acid, log2 fold change): -0.4298
Log2(fold changes) 4-aminobutyrate ([3]; metabolite 4-aminobutyrate, log2 fold change): 0.1717
Log2(fold changes) 4-phosphopantetheine ([3]; metabolite 4-phosphopantetheine, log2 fold change): 0.0000
Log2(fold changes) 4-phosphopantothenate ([3]; metabolite 4-phosphopantothenate, log2 fold change): -0.4691
Log2(fold changes) 5-aminopentanoic acid ([3]; metabolite 5-aminopentanoic acid, log2 fold change): 0.0000
Log2(fold changes) 5-methyl-THF ([3]; metabolite 5-methyl-THF, log2 fold change): 0.0000
Log2(fold changes) 5-phosphoribosyl-1-pyrophosphate ([3]; metabolite 5-phosphoribosyl-1-pyrophosphate, log2 fold change): -1.6071
Log2(fold changes) 6-phospho-D-gluconate ([3]; metabolite 6-phospho-D-gluconate, log2 fold change): -0.0745
Log2(fold change) HVDD ([3]; metabolite HVDD): 0.0000
Log2(fold change) Hydroxyisocaproic acid ([3]; metabolite Hydroxyisocaproic acid): 0.0000
Log2(fold change) IDP ([3]; metabolite IDP): 0.0000
Log2(fold change) IMP ([3]; metabolite IMP): -0.5306
Log2(fold change) Inositol ([3]; metabolite Inositol): 0.0000
Log2(fold change) Isopentyl-PP ([3]; metabolite Isopentyl-PP): 0.0000
Log2(fold change) L-arginino-succinate ([3]; metabolite L-arginino-succinate): 0.0000
Log2(fold change) LD ([3]; metabolite LD): -0.2580
Log2(fold change) Myristoyl/tetradecanoyl-CoA ([3]; metabolite Myristoyl/tetradecanoyl-CoA): 0.0000
Log2(fold change) N-Acetyl-L-alanine ([3]; metabolite N-Acetyl-L-alanine): -0.7106
Log2(fold change) N-acetyl-L-ornithine ([3]; metabolite N-acetyl-L-ornithine): -2.2540
Log2(fold change) N-acetyl-glucosamine-1/6-phosphate ([3]; metabolite N-acetyl-glucosamine-1/6-phosphate): 0.4803
Log2(fold change) N-acetyl-glutamate ([3]; metabolite N-acetyl-glutamate): 0.5064
Log2(fold change) N-acetyl-glutamine ([3]; metabolite N-acetyl-glutamine): -0.2284
Log2(fold change) N-carbamoyl-L-aspartate ([3]; metabolite N-carbamoyl-L-aspartate): -0.8588
Log2(fold change) NAD+ ([3]; metabolite NAD+): -0.1903
Log2(fold change) NADH ([3]; metabolite NADH): 0.1160
Log2(fold change) NADP+ ([3]; metabolite NADP+): -0.0428
Log2(fold change) NADPH ([3]; metabolite NADPH): 0.7586
Log2(fold change) O-acetyl-L-serine ([3]; metabolite O-acetyl-L-serine): 0.0000
Log2(fold change) Octoluse 8/1P ([3]; metabolite Octoluse 8/1P): 0.0988
Log2(fold change) Octoluse Bisphosphate ([3]; metabolite Octoluse Bisphosphate): -0.4045
Log2(fold change) PD ([3]; metabolite PD): -2.8921
Log2(fold change) PE ([3]; metabolite PE): -2.0895
Log2(fold change) PEE ([3]; metabolite PEE): -1.2134
Log2(fold change) PEEK ([3]; metabolite PEEK): -1.2498
Log2(fold change) PVNF ([3]; metabolite PVNF): -4.7386
Log2(fold change) Pyroglutamic acid ([3]; metabolite Pyroglutamic acid): -0.2793
Log2(fold change) Pyrophosphate ([3]; metabolite Pyrophosphate): -1.6691
Log2(fold change) Ribose-5-phosphate ([3]; metabolite Ribose-5-phosphate): 0.0000
Log2(fold change) S-adenosyl-L-homocysteine ([3]; metabolite S-adenosyl-L-homocysteine): -0.0077
Log2(fold change) S-adenosyl-L-methioninamine ([3]; metabolite S-adenosyl-L-methioninamine): 0.0000
Log2(fold change) S-adenosyl-L-methionine ([3]; metabolite S-adenosyl-L-methionine): 0.0000
Log2(fold change) S-methyl-5'-thioadenosine ([3]; metabolite S-methyl-5'-thioadenosine): 0.7911
Log2(fold change) SD ([3]; metabolite SD): -1.1732
Log2(fold change) SDL ([3]; metabolite SDL): 0.0000
Log2(fold change) SID ([3]; metabolite SID): 0.0000
Log2(fold change) Sedoheptulose bisphosphate ([3]; metabolite Sedoheptulose bisphosphate): -0.2688
Log2(fold change) Thiamine pyrophosphate ([3]; metabolite Thiamine pyrophosphate): 0.0000
Log2(fold changes) UDP-D-glucose ([3]; metabolite UDP-D-glucose, log2 fold change): -0.0583
Log2(fold changes) UDP-D-glucuronate ([3]; metabolite UDP-D-glucuronate, log2 fold change): -0.2918
Log2(fold changes) UDP-N-acetyl-glucosamine ([3]; metabolite UDP-N-acetyl-glucosamine, log2 fold change): -0.1616
Log2(fold changes) UDP ([3]; metabolite UDP, log2 fold change): -0.0490
Log2(fold changes) UMP ([3]; metabolite UMP, log2 fold change): -0.4851
Log2(fold changes) UTP ([3]; metabolite UTP, log2 fold change): -1.1444
Log2(fold change) hydroxyphenylpyruvate ([3]; metabolite hydroxyphenylpyruvate): 0.0000
Log2(fold change) hydroxyproline/Aminolevulinate ([3]; metabolite hydroxyproline/Aminolevulinate): 0.0000
Log2(fold change) hypoxanthine ([3]; metabolite hypoxanthine): -0.4020
Log2(fold change) indole ([3]; metabolite indole): -0.6106
Log2(fold change) inosine ([3]; metabolite inosine): -0.0831
Log2(fold change) isoleucine ([3]; metabolite isoleucine): 0.0000
Log2(fold change) lactate ([3]; metabolite lactate): -0.0810
Log2(fold change) leucine ([3]; metabolite leucine): 0.0000
Log2(fold change) lysine ([3]; metabolite lysine): 0.0000
Log2(fold change) malate ([3]; metabolite malate): -0.9119
Log2(fold change) maleic acid ([3]; metabolite maleic acid): 0.0000
Log2(fold change) methionine ([3]; metabolite methionine): 0.0000
Log2(fold change) myo-inositol ([3]; metabolite myo-inositol): 0.1446
Log2(fold change) nicotinamide mononucleotide ([3]; metabolite nicotinamide mononucleotide): 0.0000
Log2(fold change) nicotinate ([3]; metabolite nicotinate): 0.0498
Log2(fold change) ornithine ([3]; metabolite ornithine): 0.1803
Log2(fold change) orotate ([3]; metabolite orotate): -0.8832
Log2(fold change) orotidine-5'-phosphate ([3]; metabolite orotidine-5'-phosphate): 0.0000
Log2(fold change) oxaloacetate ([3]; metabolite oxaloacetate): 0.0000
Log2(fold change) p-aminobenzoate ([3]; metabolite p-aminobenzoate): 0.0000
Log2(fold change) p-hydroxybenzoate ([3]; metabolite p-hydroxybenzoate): 0.2564
Log2(fold change) pantothenate ([3]; metabolite pantothenate): 0.0000
Log2(fold change) phenylalanine ([3]; metabolite phenylalanine): 0.0000
Log2(fold change) phenylpyruvate ([3]; metabolite phenylpyruvate): -0.8371
Log2(fold change) phosphoenolpyruvate ([3]; metabolite phosphoenolpyruvate): 0.4091
Log2(fold change) prephenate ([3]; metabolite prephenate): 0.0000
Log2(fold change) proline ([3]; metabolite proline): 0.0000
Log2(fold change) pyridoxine ([3]; metabolite pyridoxine): 0.0000
Log2(fold change) pyruvate ([3]; metabolite pyruvate): -0.4292
Log2(fold change) riboflavin ([3]; metabolite riboflavin): 0.0000
Log2(fold change) ribose ([3]; metabolite ribose): 0.0000
Log2(fold change) ribose-phosphate ([3]; metabolite ribose-phosphate): -0.0154
Log2(fold change) ribulose-5-phosphate ([3]; metabolite ribulose-5-phosphate): 0.0000
Log2(fold change) serine ([3]; metabolite serine): 0.0000
Log2(fold change) sn-glycerol-3-phosphate ([3]; metabolite sn-glycerol-3-phosphate): 0.2907
Log2(fold change) succinate/Methylmalonic acid ([3]; metabolite succinate/Methylmalonic acid): -0.5437
Log2(fold change) succinyl-CoA/methylmalonyl-CoA ([3]; metabolite succinyl-CoA/methylmalonyl-CoA): 0.0000
Log2(fold change) taurine ([3]; metabolite taurine): 0.0000
Log2(fold change) thiamine ([3]; metabolite thiamine): 0.0000
Log2(fold change) threonine/homoserine ([3]; metabolite threonine/homoserine): 0.0000
Log2(fold change) thymidine ([3]; metabolite thymidine): -0.8046
Log2(fold changes) thymine ([3]; metabolite thymine, log2 fold change): -0.3850
Log2(fold changes) trehalose-6-Phosphate ([3]; metabolite trehalose-6-Phosphate, log2 fold change): 0.0000
Log2(fold changes) tryptophan ([3]; metabolite tryptophan, log2 fold change): 0.0000
Log2(fold changes) tyrosine ([3]; metabolite tyrosine, log2 fold change): 0.0000
Log2(fold changes) uridine ([3]; metabolite uridine, log2 fold change): -0.9561
peptide levels (hemoglobin catabolism signature) [4]: decreased peptide levels
